This passage reports Emax and EC50 results from patent publication US20240208992A1, “MACROCYCLES AS CFTR MODULATORS” (Idorsia Pharmaceuticals Ltd, priority 2021, published 2024).

The assay has as its target human F508del-CFTR (Homo sapiens, UniProt P13569, DEL508-508). Kind of assay: F508del-CFTR cell surface expression (corrector activity), DiscoveRx ß-galactosidase complementation chemiluminescence assay in recombinant U2OS cell line.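 As to all read-outs here: U2OS cells co-expressing ProLink-tagged F508del-CFTR and a membrane-anchored enzyme acceptor, where more surface CFTR restores β-galactosidase activity measured by chemiluminescence.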 The following applies: U2OS cell line, 16h compound incubation; for Emax: U2OS, in relation to the Emax of the corrector lumacaftor (=100%), arithmetic mean values; for EC50: EC50, F508del-CFTR cell surface expression, geomean values.

Sequence of human F508del-CFTR (P13569 with tags, fused parts or gaps DEL508-508): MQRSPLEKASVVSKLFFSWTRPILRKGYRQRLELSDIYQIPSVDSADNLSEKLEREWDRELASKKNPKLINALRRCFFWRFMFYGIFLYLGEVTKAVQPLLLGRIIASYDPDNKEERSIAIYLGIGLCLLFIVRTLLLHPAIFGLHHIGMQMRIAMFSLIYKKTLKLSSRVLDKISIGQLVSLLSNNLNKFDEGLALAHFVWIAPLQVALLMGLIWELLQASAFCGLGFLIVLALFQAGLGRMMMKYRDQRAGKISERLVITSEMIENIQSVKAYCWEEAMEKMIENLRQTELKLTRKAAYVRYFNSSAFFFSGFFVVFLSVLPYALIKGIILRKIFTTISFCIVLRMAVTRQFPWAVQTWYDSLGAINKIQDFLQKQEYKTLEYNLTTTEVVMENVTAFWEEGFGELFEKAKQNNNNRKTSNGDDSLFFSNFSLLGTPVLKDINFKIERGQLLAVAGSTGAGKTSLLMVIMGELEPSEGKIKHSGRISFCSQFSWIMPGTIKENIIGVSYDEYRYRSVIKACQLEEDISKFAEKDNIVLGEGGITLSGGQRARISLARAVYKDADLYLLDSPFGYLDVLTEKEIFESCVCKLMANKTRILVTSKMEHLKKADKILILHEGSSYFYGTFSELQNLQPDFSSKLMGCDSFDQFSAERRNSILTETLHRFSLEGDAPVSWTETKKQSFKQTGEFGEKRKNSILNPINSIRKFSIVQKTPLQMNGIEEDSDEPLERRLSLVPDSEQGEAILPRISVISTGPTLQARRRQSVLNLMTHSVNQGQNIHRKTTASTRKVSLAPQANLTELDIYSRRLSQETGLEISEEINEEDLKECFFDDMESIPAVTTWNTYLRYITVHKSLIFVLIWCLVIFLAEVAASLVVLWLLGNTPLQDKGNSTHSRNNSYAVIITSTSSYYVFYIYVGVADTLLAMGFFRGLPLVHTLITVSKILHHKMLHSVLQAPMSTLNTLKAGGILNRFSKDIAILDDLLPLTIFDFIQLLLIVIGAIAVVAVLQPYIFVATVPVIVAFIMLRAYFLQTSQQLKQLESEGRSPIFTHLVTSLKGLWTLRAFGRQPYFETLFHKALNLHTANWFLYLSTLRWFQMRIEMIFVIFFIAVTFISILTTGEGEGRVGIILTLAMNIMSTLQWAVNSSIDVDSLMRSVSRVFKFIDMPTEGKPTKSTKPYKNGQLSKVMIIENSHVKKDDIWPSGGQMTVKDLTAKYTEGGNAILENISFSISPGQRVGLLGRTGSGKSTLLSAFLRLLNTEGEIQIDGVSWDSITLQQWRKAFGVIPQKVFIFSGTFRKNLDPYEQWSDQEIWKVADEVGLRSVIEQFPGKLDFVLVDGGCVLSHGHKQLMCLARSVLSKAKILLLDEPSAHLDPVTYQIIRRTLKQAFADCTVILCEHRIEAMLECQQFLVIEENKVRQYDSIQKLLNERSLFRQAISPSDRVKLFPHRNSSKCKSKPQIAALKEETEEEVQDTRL

On to `Cc1csc(CCNC(=O)[C@@H]2CC(=O)N(C)[C@@H](CC(C)C)C(=O)N3CCCC[C@@H]3C(=O)N[C@H](Cc3ccccc3)COc3ccc4ncn(C)c4c3C(=O)N2)n1` (racemic) [Example 23, (8RS,12S,18aR,21R)-21-benzyl-12-isobutyl-5,11-dimethyl-N-(2-(4-methylthiazol-2-yl)ethyl)-6,10,13,19-tetraoxo-6,7,8,9,10,11,12,13,16,17,18,18a,19,20,21,22-hexadecahydro-5H,15H-imidazo[4′,5′:5,6]benzo[1,2-p]pyrido[2,1-f][1]oxa[4,7,10,14]tetraazacycloheptadecine-8-carboxamide], for which the Emax – broadly, the greatest response seen or fitted, relative to the assay's reference – was determined as 115%.
Turning to `Cc1cnc(CCNC(=O)[C@@H]2CC(=O)N(C)[C@@H](CC(C)C)C(=O)N3CCCC[C@@H]3C(=O)N[C@H](Cc3ccccc3)COc3ccc4ncn(C)c4c3C(=O)N2)s1` (racemic) [Example 24, (8RS,12S,18aR,21R)-21-benzyl-12-isobutyl-5,11-dimethyl-N-(2-(5-methylthiazol-2-yl)ethyl)-6,10,13,19-tetraoxo-6,7,8,9,10,11,12,13,16,17,18,18a,19,20,21,22-hexadecahydro-5H,15H-imidazo[4′,5′:5,6]benzo[1,2-p]pyrido[2,1-f][1]oxa[4,7,10,14]tetraazacycloheptadecine-8-carboxamide], the EC50 (commonly the midpoint of the concentration-response curve) was 823 nM and the Emax turned out to be 131%.
For the compound `COc1ccc(CCNC(=O)[C@@H]2CC(=O)N(C)[C@@H](CC(C)C)C(=O)N3CCCC[C@@H]3C(=O)N[C@H](Cc3ccccc3)COc3ccc4ncn(C)c4c3C(=O)N2)cc1` (racemic) [Example 25, (8RS,12S,18aR,21R)-21-benzyl-12-isobutyl-N-(4-methoxyphenethyl)-5,11-dimethyl-6,10,13,19-tetraoxo-6,7,8,9,10,11,12,13,16,17,18,18a,19,20,21,22-hexadecahydro-5H,15H-imidazo[4′,5′:5,6]benzo[1,2-p]pyrido[2,1-f][1]oxa[4,7,10,14]tetraazacycloheptadecine-8-carboxamide], the EC50 was found to be 547 nM and the Emax is 142%.
With `CC(C)C[C@H]1C(=O)N2CCCC[C@@H]2C(=O)N[C@H](Cc2ccccc2)COc2ccc3ncn(C)c3c2C(=O)N[C@H](C(=O)NCCc2cccc(OC(F)F)c2)CC(=O)N1C` (racemic) [Example 26, (8RS,12S,18aR,21R)-21-benzyl-N-(3-(difluoromethoxy)phenethyl)-12-isobutyl-5,11-dimethyl-6,10,13,19-tetraoxo-6,7,8,9,10,11,12,13,16,17,18,18a,19,20,21,22-hexadecahydro-5H,15H-imidazo[4′,5′:5,6]benzo[1,2-p]pyrido[2,1-f][1]oxa[4,7,10,14]tetraazacycloheptadecine-8-carboxamide], the concentration giving a half-maximal response (EC50) turned out to be 299 nM and the Emax came to 111%.
Consider `CC(C)C[C@H]1C(=O)N2CCCC[C@@H]2C(=O)N[C@H](Cc2ccccc2)COc2ccc3ncn(C)c3c2C(=O)N[C@H](C(=O)NCCc2ccccc2)CC(=O)N1C` (racemic) [Example 27, (8RS,12S,18aR,21R)-21-benzyl-12-isobutyl-5,11-dimethyl-6,10,13,19-tetraoxo-N-phenethyl-6,7,8,9,10,11,12,13,16,17,18,18a,19,20,21,22-hexadecahydro-5H,15H-imidazo[4′,5′:5,6]benzo[1,2-p]pyrido[2,1-f][1]oxa[4,7,10,14]tetraazacycloheptadecine-8-carboxamide], for which the EC50 is 474 nM and the Emax amounted to 114%.
Consider `CC(C)C[C@H]1C(=O)N2CCCC[C@@H]2C(=O)N[C@H](Cc2ccccc2)COc2ccc3ncn(C)c3c2C(=O)N[C@H](C(=O)NCCc2cccc(-n3nccn3)c2)CC(=O)N1C` (racemic) [Example 28, (8RS,12S,18aR,21R)-N-(3-(2H-1,2,3-triazol-2-yl)phenethyl)-21-benzyl-12-isobutyl-5,11-dimethyl-6,10,13,19-tetraoxo-6,7,8,9,10,11,12,13,16,17,18,18a,19,20,21,22-hexadecahydro-5H,15H-imidazo[4′,5′:5,6]benzo[1,2-p]pyrido[2,1-f][1]oxa[4,7,10,14]tetraazacycloheptadecine-8-carboxamide], for which the Emax was 106%.
Turning to `COc1cccc(CCNC(=O)[C@@H]2CC(=O)N(C)[C@@H](CC(C)C)C(=O)N(C)CC(=O)N[C@H](Cc3ccccc3)COc3cc4c(cc3C(=O)N2)OCO4)c1OC` (racemic) [Example 151, (7R,13S,17RS)-7-benzyl-N-(2,3-dimethoxyphenethyl)-13-isobutyl-11,14-dimethyl-9,12,15,19-tetraoxo-6,7,8,9,10,11,12,13,14,15,16,17,18,19-tetradecahydro-[1,3]dioxolo[4′,5′:4,5]benzo[1,2-p][1]oxa[4,7,10,14]tetraazacycloheptadecine-17-carboxamide], the Emax amounted to 106%.
In the case of `COc1cc2c(cc1OC)C(=O)N[C@H](C(=O)NCCc1ccc3c(c1)CCO3)CC(=O)N(C)[C@@H](CC(C)C)C(=O)N(C)CC(=O)N[C@H](Cc1ccccc1)CO2` (racemic) [Example 152, (3R,9S,13RS)-3-benzyl-N-(2-(2,3-dihydrobenzofuran-5-yl)ethyl)-9-isobutyl-17,18-dimethoxy-7,10-dimethyl-5,8,11,15-tetraoxo-2,3,4,5,6,7,8,9,10,11,12,13,14,15-tetradecahydrobenzo[p][1]oxa[4,7,10,14]tetraazacycloheptadecine-13-carboxamide], the Emax came out at 133%.
Take `COc1cc2c(cc1OC)C(=O)N[C@H](C(=O)NCCc1ccc3c(c1)OCO3)CC(=O)N(C)[C@@H](CC(C)C)C(=O)N(CC[C@H]1CCCCO1)CC(=O)N[C@H](Cc1ccccc1)CO2` (racemic) [Example 155, (3R,9S,13S)-N-(2-(benzo[d][1,3]dioxol-5-yl)ethyl)-3-benzyl-9-isobutyl-17,18-dimethoxy-10-methyl-5,8,11,15-tetraoxo-7-(2-((RS)-tetrahydro-2H-pyran-2-yl)ethyl)-2,3,4,5,6,7,8,9,10,11,12,13,14,15-tetradecahydrobenzo[p][1]oxa[4,7,10,14]tetraazacycloheptadecine-13-carboxamide]: the EC50 was 260 nM and the Emax was determined as 144%.
Taken in the same sequence, the figures for `COc1cccc2c1C(=O)N[C@H](C(=O)NCCC1CCC(C)(C)CO1)CC(=O)N(C)[C@@H](CC(C)C)C(=O)N(CCC1CCCCC1)CC(=O)N[C@H](Cc1ccccc1)CO2` (mixture of isomers) [Example 157, (3R,9S,13S)-3-benzyl-7-(2-cyclohexylethyl)-N-((RS)-2-(5,5-dimethyltetrahydro-2H-pyran-2-yl)ethyl)-9-isobutyl-16-methoxy-10-methyl-5,8,11,15-tetraoxo-2,3,4,5,6,7,8,9,10,11,12,13,14,15-tetradecahydrobenzo[p][1]oxa[4,7,10,14]tetraazacycloheptadecine-13-carboxamide] were 395 nM and 121%.
For the compound `CC(C)C[C@H]1C(=O)N(C[C@H]2CCCCO2)CC(=O)N[C@H](Cc2ccccc2)COc2ccc3ccccc3c2C(=O)N[C@H](C(=O)NCCc2ccc3c(c2)OCO3)CC(=O)N1C` (racemic) [Example 162, (3RS,7S,13R)-N-(2-(benzo[d][1,3]dioxol-5-yl)ethyl)-13-benzyl-7-isobutyl-6-methyl-1,5,8,11-tetraoxo-9-(((R)-tetrahydro-2H-pyran-2-yl)methyl)-1,2,3,4,5,6,7,8,9,10,11,12,13,14-tetradecahydronaphtho[1,2-p][1]oxa[4,7,10,14]tetraazacycloheptadecine-3-carboxamide], the Emax is 132%.
For `CC(C)C[C@H]1C(=O)N(C[C@@H]2CCCCO2)CC(=O)N[C@H](Cc2ccccc2)COc2ccc3ccccc3c2C(=O)N[C@H](C(=O)NCCc2ccc3c(c2)OCO3)CC(=O)N1C` (racemic) [Example 163, (3RS,7S,13R)-N-(2-(benzo[d][1,3]dioxol-5-yl)ethyl)-13-benzyl-7-isobutyl-6-methyl-1,5,8,11-tetraoxo-9-(((S)-tetrahydro-2H-pyran-2-yl)methyl)-1,2,3,4,5,6,7,8,9,10,11,12,13,14-tetradecahydronaphtho[1,2-p][1]oxa[4,7,10,14]tetraazacycloheptadecine-3-carboxamide], the EC50 was 377 nM and the Emax came out at 185%.
On to `COc1cccc(CCNC(=O)[C@@H]2CC(=O)N(C)[C@@H](CC(C)C)C(=O)N(C[C@H]3CCCCO3)CC(=O)N[C@H](Cc3ccccc3)COc3ccc4ccccc4c3C(=O)N2)c1` (racemic) [Example 164, (3RS,7S,13R)-13-benzyl-7-isobutyl-N-(3-methoxyphenethyl)-6-methyl-1,5,8,11-tetraoxo-9-(((R)-tetrahydro-2H-pyran-2-yl)methyl)-1,2,3,4,5,6,7,8,9,10,11,12,13,14-tetradecahydronaphtho[1,2-p][1]oxa[4,7,10,14]tetraazacycloheptadecine-3-carboxamide], for which the Emax stood at 167%.
As to `COc1cccc(CCNC(=O)[C@@H]2CC(=O)N(C)[C@@H](CC(C)C)C(=O)N(C[C@@H]3CCCCO3)CC(=O)N[C@H](Cc3ccccc3)COc3ccc4ccccc4c3C(=O)N2)c1` (racemic) [Example 165, (3RS,7S,13R)-13-benzyl-7-isobutyl-N-(3-methoxyphenethyl)-6-methyl-1,5,8,11-tetraoxo-9-(((S)-tetrahydro-2H-pyran-2-yl)methyl)-1,2,3,4,5,6,7,8,9,10,11,12,13,14-tetradecahydronaphtho[1,2-p][1]oxa[4,7,10,14]tetraazacycloheptadecine-3-carboxamide], the EC50 worked out at 287 nM and the Emax was 149%.
Regarding `COc1cccc2c1C(=O)N[C@H](C(=O)NCC[C@H]1CCCCO1)CC(=O)N(C)[C@@H](CC(C)C)C(=O)N(CCC1CCCCC1)CC(=O)N[C@H](Cc1ccccc1)CO2` (racemic) [Example 212, (3R,9S,13S)-3-benzyl-7-(2-cyclohexylethyl)-9-isobutyl-16-methoxy-10-methyl-5,8,11,15-tetraoxo-N-(2-((RS)-tetrahydro-2H-pyran-2-yl)ethyl)-2,3,4,5,6,7,8,9,10,11,12,13,14,15-tetradecahydrobenzo[p][1]oxa[4,7,10,14]tetraazacycloheptadecine-13-carboxamide], the EC50 was 292 nM and the Emax was 130%.
